Tests used:
HIV-1 T20S = assay type: cell-based; conditions: HIV-1 T20S, Table 5
Description: (§1) Illustrated in this example is the unexpected result of antiviral potency using the conjugates according to the present invention. […] In determining antiviral activity (e.g., one measure being the ability to inhibit transmission of HIV to a target cell) of the conjugates according to the present invention, used was an in vitro assay which has been shown, by data generated using synthetic peptides derived from either of the HR regions of HIV gp41, to be predictive of antiviral activity observed in vivo.
(§2) The infectivity assays score for reduction of infectious virus titer employing the indicator cell lines MAGI or the CCR5 expressing derivative cMAGI. Both cell lines exploit the ability of HIV-1 that to transactivate the expression of a β-galactosidase reporter gene driven by the HIV-LTR. The β-gal reporter has been modified to localize in the nucleus and can be detected with the X-gal substrate as intense nuclear staining within a few days of infection. The number of stained nuclei can thus be interpreted as equal to the number of infectious virions in the challenge inoculum if there is only one round of infection prior to staining. Infected cells are enumerated using a CCD-imager and both primary and laboratory adapted isolates show a linear relationship between virus input and the number of infected cells visualized by the imager. […] Peptides tested for antiviral activity were diluted into various concentrations, and tested in duplicate or triplicate against an HIV inoculum adjusted to yield approximately 1500-2000 infected cells/well of a 48 well microtiter plate. The peptide (in the respective dilution) was added to the CMAGI or MAGI cells, followed by the virus inocula; and 24 hours later, an inhibitor of infection and cell-cell fusion (e.g., T20) was added to prevent secondary rounds of HIV infection and cell-cell virus spread. The cells were cultured for 2 more days, and then fixed and stained with the X-gal substrate to detect HIV-infected cells. The number of infected cells for each control and peptide dilution was determined with the CCD-imager, and then the IC50 and IC90 were calculated (expressed in μg/ml).
In this first example of antiviral potency, two clinical isolates of HIV were obtained from the same HIV-infected individual. A first isolate, hereby designated “HIV-1 T20S” for ease of description, was sensitive to the antiviral effect of T20 (SEQ ID NO:4) both in vitro and in vivo. […] The results, with the IC50 expressed in ng/ml, are illustrated in Table 2.
(§3) Using the methods taught in Example 1 herein, additional conjugates were produced by varying the polymer, the terminus of the synthetic peptide which is operably bound to polymer, and the reactive functionality used for operably binding synthetic peptide to polymer. Two molecules of synthetic peptide (e.g. SEQ ID NO:4) were operably bound to polymer. Such conjugates were then tested for antiviral activity against HIV isolates IIIB, and HIV-1 T20S & HIV-1 T20R (see Table 2 for HIV resistant strains), with the antiviral activity (IC50) expressed in μg/ml. The results for the various conjugates (Table 5, A-Q), terminus of synthetic peptide used for operably binding polymer (Table 5, C-terminus denoted as “C”, N-terminus denoted as “N”) or if an internal lysine was used (Table 5, “Lys 18”, signifying lysine as amino acid residue 18 in the amino acid sequence of the synthetic peptide), antiviral activity (IC50) against HIV-1 strain IIIB (Table 5, “IIIB”), antiviral activity (IC50) against HIV-1 T20S (Table 5, “T20S”) and antiviral activity (IC50) against HIV-1 T20R (Table 5, “T20R”), are illustrated in Table 5.

HIV-1 T20R = assay type: cell-based; conditions: HIV-1 T20R, Table 5
Description: The infectivity assays score for reduction of infectious virus titer employing the indicator cell lines MAGI or the CCR5 expressing derivative cMAGI. Both cell lines exploit the ability of HIV-1 that to transactivate the expression of a β-galactosidase reporter gene driven by the HIV-LTR. The β-gal reporter has been modified to localize in the nucleus and can be detected with the X-gal substrate as intense nuclear staining within a few days of infection. The number of stained nuclei can thus be interpreted as equal to the number of infectious virions in the challenge inoculum if there is only one round of infection prior to staining. […] The peptide (in the respective dilution) was added to the CMAGI or MAGI cells, followed by the virus inocula; and 24 hours later, an inhibitor of infection and cell-cell fusion (e.g., T20) was added to prevent secondary rounds of HIV infection and cell-cell virus spread. The cells were cultured for 2 more days, and then fixed and stained with the X-gal substrate to detect HIV-infected cells. The number of infected cells for each control and peptide dilution was determined with the CCD-imager, and then the IC50 and IC90 were calculated (expressed in μg/ml).
In this first example of antiviral potency, two clinical isolates of HIV were obtained from the same HIV-infected individual.
Using the methods taught in Example 1 herein, additional conjugates were produced by varying the polymer, the terminus of the synthetic peptide which is operably bound to polymer, and the reactive functionality used for operably binding synthetic peptide to polymer. Two molecules of synthetic peptide (e.g. SEQ ID NO:4) were operably bound to polymer.

HIV-1 strain IIIB = experiment: In vitro infectivity assay, HIV-1 strain IIIB (Table 5); assay type: cell-based
Description: as §1, §2, §3

HIV = conditions: Lawless et al., 1996; cited from earlier work

Substance | T20S (antiviral activity, IC50) (HIV-1 T20S) | T20R (antiviral activity, IC50) (HIV-1 T20R) | IIIB (antiviral activity, IC50) (HIV-1 strain IIIB) | 50% effective concentration values (EC50), blocked infection of T cells (HIV) [µg/mL]
Conjugate Q: two molecules of SEQ ID NO:4 bound via internal lysine (Lys18) to PEG 6 | .055 µg/mL | .120 µg/mL | .057 µg/mL | 
Conjugate P: two molecules of SEQ ID NO:4 bound via C-terminus to GLY-PEG 6 (glycine linker) | .031 µg/mL |  |  | 
Conjugate D: two molecules of SEQ ID NO:4 bound via N-terminus to alkyl C5 | .036 µg/mL | .049 µg/mL | .039 µg/mL | 
NNLLRAIEAQQHLLQLTVWGIKQLQARILAVERYLKDQ [DP107] |  |  |  | 1
Conjugate J: two molecules of SEQ ID NO:4 bound via N-terminus to PEG 3 | .028 µg/mL | .049 µg/mL | .036 µg/mL | 
Conjugate K: two molecules of SEQ ID NO:4 bound via N-terminus to PEG 4 | .026 µg/mL | .067 µg/mL | .033 µg/mL | 
Conjugate G: two molecules of SEQ ID NO:4 bound via N-terminus to alkyl C11 | .176 µg/mL | .218 µg/mL | .174 µg/mL | 
Conjugate N: two molecules of SEQ ID NO:4 bound via N-terminus to PEG 10 | .017 µg/mL | .023 µg/mL | .039 µg/mL | 
Conjugate O: two molecules of SEQ ID NO:4 bound via C-terminus to GLY-C6 (glycine linker) | .083 µg/mL |  |  | 
Conjugate A: two molecules of SEQ ID NO:4 bound via N-terminus to PEG 6 | .029 µg/mL | .050 µg/mL | .037 µg/mL | 
Conjugate H: SEQ ID NO:4 bound via N-terminus to AT, a triacid (e.g., trisuccinimidylamino triacetate) | .047 µg/mL | .124 µg/mL | .046 µg/mL | 
Conjugate M: two molecules of SEQ ID NO:4 bound via C-terminus to GLY-C2 (glycine linker) | .085 µg/mL |  |  | 
Conjugate E: two molecules of SEQ ID NO:4 bound via N-terminus to PEG 8 | .026 µg/mL | .020 µg/mL | .018 µg/mL | 
Conjugate B: two molecules of SEQ ID NO:4 bound via C-terminus to PEG 6 | .053 µg/mL | .070 µg/mL | .117 µg/mL | 
Conjugate L: two molecules of SEQ ID NO:4 bound via C-terminus to GLY-PEG 3 (glycine linker) | .061 µg/mL |  |  | 
LTWQEWDREINNYTSLIYSLIEESQNQQEENEQELL [synthetic peptide alone] | .010 µg/mL | 1.2 µg/mL | .007 µg/mL | 
Conjugate I: two molecules of SEQ ID NO:4 bound via N-terminus to PEG 4-6-4 | .012 µg/mL | .029 µg/mL | .029 µg/mL | 
Conjugate F: two molecules of SEQ ID NO:4 bound via N-terminus to alkyl C8 | .049 µg/mL | .087 µg/mL | .089 µg/mL | 
Conjugate C: two molecules of SEQ ID NO:4 bound via C-terminus to PEG 6 | .046 µg/mL | .050 µg/mL | .065 µg/mL | 

— patent publication US20100016225A1, “CONJUGATES COMPRISED OF POLYMER AND HIV gp-41-DERIVED PEPTIDES AND THEIR USE IN THERAPY” (Trimeris, Inc., priority 2002, published 2010)
